US20250332176A1, “TREATMENT FOR FIBROSIS AND INHIBITION OF FIBROSIS” (GALMED RESEARCH AND DEVELOPMENT LTD, priority 2022, published 2025)

Tested on: Male C57BL/12 mice
Assay: Bleomycin (BLM)-induced pulmonary fibrosis model
Assay type: in vivo
Settings: bleomycin 1.5 U/kg intratracheal, prophylactic, day 0→21
Procedure: The following model was employed: • Male C57BL/12 mice,22-26 g • Induction by administration of Bleomycin (1.5 U/kg), intratracheal • Ref. Comp.: Pirfenidone, 100 mg/kg, p.o., BID • Treatment Mode: Prophylactic (from day 0→21)
Pulmonary fibrosis was induced by bleomycin (BLM) and treated with aramchol (meglumine salt). As a reference, results for the known anti-idiophatic pulmonary fibrosis agent pirfenidone are also presented, in FIGS. 26A-26B, where hydroxyproline was used as biomarker for fibrosis (hydroxyproline use as idiophatic pulmonary fibrosis biomarker is disclosed in “Lung fibrosis is ameliorated by pirfenidone fed in diet after the second dose in a three-dose bleomycin-hamster model”, Iyer, Swarnalatha N.; Margolin, S. B.; Hyde, D. M.; Giri, S. N.; Experimental Lung Research (1998), 24(1), 119-132; and “Simple determination of L-hydroxyproline in idiopathic pulmonary fibrosis lung tissues of rats using non-extractive high-performance liquid chromatography coupled with fluorescence detection after pre-column derivatization with novel synthetic 9-acetylimidazol-carbazole”, Ren, Y.; Zhao, J.; Shi, Y.; Chen, C.; Chen, X.; Lv, C.; Journal of Pharmaceutical and Biomedical Analysis 2017, 142, 1-6).

| SMILES | histopathology of the lungs (H&E, COL1A1, aSMA; FIG. 27) | Ashcroft score, COL1A1 and aSMA quantification (FIGS. 28A-28E) (compared to pirfenidone) |
| --- | --- | --- |
| CCCCCCCCCCCCCCCCCCCC(=O)N[C@H]1CC[C@@]2(C)[C@@H](C1)C[C@@H](O)[C@@H]1[C@@H]2C[C@H](O)[C@]2(C)[C@@H]([C@H](C)CCC(=O)O)CC[C@@H]12 [aramchol] | very similar to the one of pirfenidone | treats the fibrosis in better (higher) extent and has more significant effect |
| Cc1ccc(=O)n(-c2ccccc2)c1 [pirfenidone, reference compound] | much more similar to the one without the fibrosis |  |
